This is an account of results in patent US20240368203A1, “DEGRADATION OF (EGFR) BY CONJUGATION OF EGFR INHIBITORS WITH E3 LIGASE LIGAND AND METHODS OF USE” (BeiGene, Ltd., priority 2022, published 2024).

Structures are written as SMILES.

One assay concerns EGFR-Del19/T790M/C797S. Put plainly: EGFR degradation HTRF assay in H1975-clone #28 cells. It is filed as cell-based. The note with it: H1975-clone #28 (Del19/T790M/C797S) cells, 16 h treatment; for DC50: IC50 (DC50), read-out: DC50(nM) H1975 # 28 DTC; for Dmax (%) H1975 # 28 DTC: maximum percentage of inhibition (degradation). The essentials:
(§1)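 H1975 clones with endogenous EGFR knocked out, homozygously expressing lentiviral L858R/T790M/C797S (#25) or Del19/T790M/C797S (#28), treated 16 h at 37° C with 8 doses from 10 uM, 5-fold, in 0.2% DMSO. EGFR in lysates measured by HTRF overnight; DC50 from four-parameter fit of % degradation.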
(TR-FRET usually uses a lanthanide donor and a delayed reading to cut background.)

The target of another assay is T1, EGFR-L858R/T790M/C797S (Homo sapiens, UniProt P00533, C797S/L858R/T790M).
T1 construct: expressed in transfected cells; host or cells: H1975-clone #25 (lentiviral over-expression, endogenous EGFR knocked out)
T1 sequence (P00533 25-1210 T790M/C797S/L858R): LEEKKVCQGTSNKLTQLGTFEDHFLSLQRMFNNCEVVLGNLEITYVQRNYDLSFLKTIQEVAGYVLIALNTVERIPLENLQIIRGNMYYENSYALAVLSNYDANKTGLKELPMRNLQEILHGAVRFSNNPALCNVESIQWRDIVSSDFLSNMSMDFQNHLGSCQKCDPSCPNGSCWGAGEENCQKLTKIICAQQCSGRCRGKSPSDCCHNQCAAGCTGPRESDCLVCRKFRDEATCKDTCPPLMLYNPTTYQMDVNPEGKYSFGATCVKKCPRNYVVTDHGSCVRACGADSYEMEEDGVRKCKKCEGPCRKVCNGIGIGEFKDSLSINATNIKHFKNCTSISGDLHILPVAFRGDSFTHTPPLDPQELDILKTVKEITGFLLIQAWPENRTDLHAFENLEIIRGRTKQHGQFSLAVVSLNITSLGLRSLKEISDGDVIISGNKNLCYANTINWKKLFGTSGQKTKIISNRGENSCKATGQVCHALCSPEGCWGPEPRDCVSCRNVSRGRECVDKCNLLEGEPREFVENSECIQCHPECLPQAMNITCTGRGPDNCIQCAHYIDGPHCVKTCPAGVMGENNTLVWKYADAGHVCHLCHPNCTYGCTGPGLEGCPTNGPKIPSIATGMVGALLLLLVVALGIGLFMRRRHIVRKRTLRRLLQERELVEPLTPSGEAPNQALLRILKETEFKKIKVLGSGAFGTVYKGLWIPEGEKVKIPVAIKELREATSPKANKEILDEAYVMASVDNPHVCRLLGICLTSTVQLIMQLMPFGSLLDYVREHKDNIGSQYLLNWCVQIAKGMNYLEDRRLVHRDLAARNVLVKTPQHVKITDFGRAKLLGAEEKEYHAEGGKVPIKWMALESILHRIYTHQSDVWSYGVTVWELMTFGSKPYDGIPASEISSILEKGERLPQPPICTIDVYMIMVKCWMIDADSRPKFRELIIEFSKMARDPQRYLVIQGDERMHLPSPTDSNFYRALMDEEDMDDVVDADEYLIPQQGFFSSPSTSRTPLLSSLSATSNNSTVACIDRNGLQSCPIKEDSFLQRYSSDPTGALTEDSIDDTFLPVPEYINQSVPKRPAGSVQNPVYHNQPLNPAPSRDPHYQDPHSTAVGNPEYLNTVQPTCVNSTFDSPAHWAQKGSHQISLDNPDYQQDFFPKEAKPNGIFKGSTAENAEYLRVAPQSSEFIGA
The experiment in a line: EGFR degradation HTRF assay in H1975-clone #25 cells. In kind it is cell-based. The settings on record: 16 h treatment; for DC50: H1975-clone #25 (L858R/T790M/C797S) cells, IC50 (DC50), read-out: DC50(nM) H1975 # 25-LTC; for Dmax: NCI-H1975, H1975-clone #25 (L858R/T790M/C797S) cells, maximum percentage of inhibition (degradation), read-out: Dmax (%) H1975 # 25-LTC. The gist of the method: as §1

The term DC50 denotes the concentration giving 50% degradation. One may read the Dmax as the largest share of the target that was removed. Turning to `CCc1cc(Nc2ncc(Br)c(Nc3ccc4nc(C)c(F)cc4c3P(C)(C)=O)n2)c(OC)cc1N1CCC2(CC1)CN(C1CCN(c3cc(F)c([C@H]4CCC(=O)NC4=O)c(F)c3)CC1)C2` [Example 62, (R)-3-(4-(4-(7-(4-((5-bromo-4-((5-(dimethylphosphoryl)-3-fluoro-2-methylquinolin-6-yl)amino)pyrimidin-2-yl)amino)-2-ethyl-5-methoxyphenyl)-2,7-diazaspiro[3.5]nonan-2-yl)piperidin-1-yl)-2,6-difluorophenyl)piperidine-2,6-dione], in the assay on EGFR-Del19/T790M/C797S, the 50% degradation concentration (DC50) was determined as 1.4 nM and the “Dmax (%) H1975 # 28 DTC” value turned out to be 89%. At EGFR-L858R/T790M/C797S, the 50% degradation concentration (DC50) came out at 1.6 nM and the Dmax stood at 95%.

With `CCc1ccc2c(P(C)(C)=O)c(Nc3nc(Nc4cc(CC)c(N5CCC(N6CCC(N7CC(c8cccc9c8n(C)c(=O)n9C8CCC(=O)NC8=O)C7)CC6)CC5)cc4OC)ncc3Br)ccc2n1` (stereo not drawn) [Example 63, 3-(4-(1-(1′-(4-((5-bromo-4-((5-(dimethylphosphoryl)-2-ethylquinolin-6-yl)amino)pyrimidin-2-yl)amino)-2-ethyl-5-methoxyphenyl)-[1,4′-bipiperidin]-4-yl)azetidin-3-yl)-3-methyl-2-oxo-2,3-dihydro-1H-benzo[d]imidazol-1-yl)piperidine-2,6-dione], in the assay on EGFR-Del19/T790M/C797S, the DC50 was found to be 4.7 nM and the “Dmax (%) H1975 # 28 DTC” value came to 74%. For the same compound, on EGFR-L858R/T790M/C797S, the DC50 came out at 2.7 nM and the Dmax came out at 77%.

Take `CCc1cc(Nc2ncc(Br)c(Nc3ccc4nc(C)c(F)cc4c3P(C)(C)=O)n2)c(OC)cc1N1CC2(C1)CN(C1CCN(c3cc(F)c([C@H]4CCC(=O)NC4=O)c(F)c3)CC1)C2` [Example 64, (R)-3-(4-(4-(6-(4-((5-bromo-4-((5-(dimethylphosphoryl)-3-fluoro-2-methylquinolin-6-yl)amino)pyrimidin-2-yl)amino)-2-ethyl-5-methoxyphenyl)-2,6-diazaspiro[3.3]heptan-2-yl)piperidin-1-yl)-2,6-difluorophenyl)piperidine-2,6-dione]: in the assay with EGFR-Del19/T790M/C797S, the half-maximal degradation concentration (DC50) was 1.1 nM and the “Dmax (%) H1975 # 28 DTC” value is reported as 94%. At EGFR-L858R/T790M/C797S, the DC50 came out at 1.5 nM and the maximal degradation (Dmax) is 95%.

Consider `COc1cc(N2CCC3(CC2)CCN(C2CCN(c4cc(F)c([C@H]5CCC(=O)NC5=O)c(F)c4)CC2)CC3)c(C)cc1Nc1ncc(Br)c(Nc2ccc3nc(C)ncc3c2P(C)(C)=O)n1` [Example 66, (R)-3-(4-(4-(9-(4-((5-bromo-4-((5-(dimethylphosphoryl)-2-methylquinazolin-6-yl)amino)pyrimidin-2-yl)amino)-5-methoxy-2-methylphenyl)-3,9-diazaspiro[5.5]undecan-3-yl)piperidin-1-yl)-2,6-difluorophenyl)piperidine-2,6-dione], for which, in the assay on EGFR-Del19/T790M/C797S, the half-maximal degradation concentration (DC50) came out at 3.5 nM and the “Dmax (%) H1975 # 28 DTC” value is recorded as 91%. At EGFR-L858R/T790M/C797S, the half-maximal degradation concentration (DC50) came out at 6.9 nM and the maximal degradation (Dmax) amounted to 93%.

Turning to `CCc1ccc2c(P(C)(C)=O)c(Nc3nc(Nc4cc(C)c(N5CCC6(CCN(CCc7cccc8c7n(C)c(=O)n8C7CCC(=O)NC7=O)CC6)CC5)cc4OC)ncc3Br)ccc2n1` (stereo not drawn) [Example 68, 3-(4-(2-(9-(4-((5-bromo-4-((5-(dimethylphosphoryl)-2-ethylquinolin-6-yl)amino)pyrimidin-2-yl)amino)-5-methoxy-2-methylphenyl)-3,9-diazaspiro[5.5]undecan-3-yl)ethyl)-3-methyl-2-oxo-2,3-dihydro-1H-benzol[d]imidazol-1-yl)piperidine-2,6-dione], in the assay on EGFR-Del19/T790M/C797S, the DC50 was 2.2 nM and the “Dmax (%) H1975 # 28 DTC” value stood at 82%. Further, at EGFR-L858R/T790M/C797S, the 50% degradation concentration (DC50) was found to be 3.1 nM and the maximal degradation (Dmax) was determined as 81%.

For the compound `COc1cc(N2CCC3(CCN(CC4CCN(c5ccc6c(c5)CN(C5CCC(=O)NC5=O)C6=O)CC4)CC3)CC2)c(C)cc1Nc1ncc(Br)c(Nc2ccc3nc(C)ccc3c2P(C)(C)=O)n1` (stereo not drawn) [Example 72, 3-(5-(4-((9-(4-((5-bromo-4-((5-(dimethylphosphoryl)-2-methylquinolin-6-yl)amino)pyrimidin-2-yl)amino)-5-methoxy-2-methylphenyl)-3,9-diazaspiro[5.5]undecan-3-yl)methyl)piperidin-1-yl)-1-oxoisoindolin-2-yl)piperidine-2,6-dione], in the assay on EGFR-Del19/T790M/C797S, the DC50 is 1.8 nM and the “Dmax (%) H1975 # 28 DTC” value was found to be 82%. Moreover, at EGFR-L858R/T790M/C797S, the half-maximal degradation concentration (DC50) turned out to be 2 nM and the greatest degradation seen (Dmax) was 82%.

On to `CCc1cc(Nc2ncc(Cl)c(Nc3ccc4nc(C)c(F)cc4c3P(C)(C)=O)n2)c(OC)cc1N1CC2(CN(CC3CN(c4cc(F)c([C@H]5CCC(=O)NC5=O)c(F)c4)C3)C2)C1` [Example 78], for which, in the assay on EGFR-Del19/T790M/C797S, the half-maximal degradation concentration (DC50) came to 1.9 nM and the “Dmax (%) H1975 # 28 DTC” value is recorded as 90%. On EGFR-L858R/T790M/C797S, the DC50 came out at 5.4 nM and the greatest degradation seen (Dmax) worked out at 74%.

Regarding `CCc1cc(Nc2ncc(Br)c(Nc3ccc4nc(C)c(F)cc4c3P(C)(C)=O)n2)c(OC)cc1N1CCC2(CCN(CC3CCN(c4cc(F)c([C@H]5CCC(=O)NC5=O)c(F)c4)CC3)CC2)CC1` [Example 79, (R)-3-(4-(4-((9-(4-((5-bromo-4-((5-(dimethylphosphoryl)-3-fluoro-2-methylquinolin-6-yl)amino)pyrimidin-2-yl)amino)-2-ethyl-5-methoxyphenyl)-3,9-diazaspiro[5.5]undecan-3-yl)methyl)piperidin-1-yl)-2,6-difluorophenyl)piperidine-2,6-dione], in the assay on EGFR-Del19/T790M/C797S, the DC50 worked out at 6.6 nM and the “Dmax (%) H1975 # 28 DTC” value came to 90%. Also, on EGFR-L858R/T790M/C797S, the DC50 stood at 3.3 nM and the maximal degradation (Dmax) worked out at 95%.

Consider `CCc1cc(Nc2ncc(Br)c(Nc3ccc4nc(C)c(F)cc4c3P(C)(C)=O)n2)c(OC)cc1N1CCC2(CC1)CCN(C1CCN(c3ccc4c(c3)C(=O)N(C3CCC(=O)NC3=O)C4=O)CC1)CC2` (stereo not drawn) [Example 92, 5-(4-(9-(4-((5-bromo-4-((5-(dimethylphosphoryl)-3-fluoro-2-methylquinolin-6-yl)amino)pyrimidin-2-yl)amino)-2-ethyl-5-methoxyphenyl)-3,9-diazaspiro[5.5]undecan-3-yl)piperidin-1-yl)-2-(2,6-dioxopiperidin-3-yl)isoindoline-1,3-dione], for which, in the assay on EGFR-Del19/T790M/C797S, the DC50 is 3.3 nM and the “Dmax (%) H1975 # 28 DTC” value turned out to be 67%. For the same compound, at EGFR-L858R/T790M/C797S, the 50% degradation concentration (DC50) amounted to 8.2 nM and the greatest degradation seen (Dmax) was determined as 85%.
